Reference: patent publication US9833463B2, “Sitagliptin tannate complex” (MERCK SHARP & DOHME CORP., priority 2014, dated 2017)

Assay type: physicochemical
Method: The dissolution profile of the sitagliptin tannate complexes of Example 1 and 2 using simulated saliva fluid (SSF) and simulated gastric fluid (SGF) by using the following two stage dissolution protocol:
Stage 1: A sample of sitagliptin tannate complex of Example 1 or 2 was placed in 10 mL of SSF, which was prepared by dissolving 8.0 g of NaCl, 0.19 g of potassium phosphate monobasic, and 2.38 g of sodium phosphate dibasic in 1 L of water, and adjusting to pH 6.8 with phosphoric acid, heated to 37° C., for 1 minute and an aliquot was removed.
Stage 2: The remaining solution transferred to 500 mL of SGF, which was prepared by dissolving 2.0 g of NaCl in 1 L of water, and adding 1.4 mL of concentrated hydrochloric acid. The SGF was stirred at 37° C. with apparatus 2 (paddles), and aliquots were collected at 6 time-points.
The aliquots were then analyzed by HPLC to determine the amount of free sitagliptin.

Substance | solubility of the complex at neutral pH | release in acidic pH (acidic pH, such as that found in the stomach) | release rate at neutral pH (neutral pH, such as that found in the mouth) | sitagliptin release from the complex in SGF (stage 2) (simulated gastric fluid (low pH), 37° C., apparatus 2 (paddles), 6 time-points, FIG. 1 / FIG. 2) | sitagliptin released from the complex in SSF (stage 1) (simulated saliva fluid pH 6.8, 37° C., 1 minute, FIG. 1 / FIG. 2)
sitagliptin tannate complex | not soluble or almost not soluble | immediate release | negligible release rate |  | 
sitagliptin tannate complex [Example 2] |  |  |  | rapidly released | very little to no sitagliptin was released
